Laboratory results published in publication PMC11661381, “Covalent-fragment screening identifies selective inhibitors of multiple Staphylococcus aureus serine hydrolases important for growth and biofilm formation” (Research Square, 2024).

Tests used:
[1] = target: T1, recombinant FphE (rFphE) (Staphylococcus aureus, UniProt Q2FDS6); experiment: biochemical; details: IC50 rFphE, value in nM
T1 construct: otherwise full-length FphE (Uniprot ID Q2FDS6) and FphH (A0A0H2XJL0) proteins; His6 (3C-cleavable, pETNKI-his-3C-LIC vector) (N); made in house; E. coli is inferred from the pET28a-type vector, IPTG induction and LB/kanamycin
T1 sequence (Q2FDS6 1-276): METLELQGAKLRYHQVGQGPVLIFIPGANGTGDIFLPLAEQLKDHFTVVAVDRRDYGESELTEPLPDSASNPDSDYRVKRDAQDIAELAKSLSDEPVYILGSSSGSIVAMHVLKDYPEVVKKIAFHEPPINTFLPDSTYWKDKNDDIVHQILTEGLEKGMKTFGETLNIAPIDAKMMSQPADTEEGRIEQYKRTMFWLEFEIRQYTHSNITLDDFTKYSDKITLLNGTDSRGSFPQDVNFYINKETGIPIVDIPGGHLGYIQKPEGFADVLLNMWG
Method: Fluorogenic substrate assays were performed as previously described[9],[11],[12]. […] Turnover rates in the linear phase of the reaction (10–20 min) were calculated using GraphPad prism 10.0 software as RFU/min. Rates were normalized by subtracting background hydrolysis rates measured for each substrate in reaction buffer in the absence of protein.
For the screening, 8 μL of enzyme solution was pipetted into the assay plates containing 50 nL compound and allowed to incubate for one hour at room temperature. […] For four-point dose response plates, 2.5, 10, 25, 50 nL droplets were transferred to get […], 10, 25, 50 μM compound concentrations in the 384 well plates again using an Echo acoustic liquid handler as above. […] Calculations were done with GraphPad Prism 10.0 software. […] IC50 values were derived from the fitted curve.

[2] = Cytotoxicity assay (CellTiter-Blue); format: cell-based; details: human; HEK293 cells, 48hr of incubation
[3] = target: T2, Fph enzymes in live S. aureus cells (USA300) (Staphylococcus aureus, UniProt Q2FDS6); experiment: Competition of FP-alkyne labeling in live S. aureus cells; format: cell-based; details: live cells, doses 5–100 μM, 120 min preincubation
T2 construct: endogenous in cells; host or cells: live S. aureus USA300 (LAC) wild-type cells
Method: (§1) One colony of each of S. aureus wild-type and transposon mutants fphB::Tn, fphE::Tn and fphH::Tn picked from growth on a Tryptic soya agar plate were inoculated in 5 mL of Tryptic soya broth (TSB). The overnight bacterial cultures were spun down at 5,000 g for 10 min and pellet was collected. The pellets were washed twice in 1X PBS buffer and resuspended in the same buffer. Cells were first preincubated with the indicated concentrations of inhibitors for 2hr at 37°C. The cells were washed twice with 1X PBS buffer. The resuspended pellets were incubated with Fluorophosphonate-alkyne (FP-alkyne) for 30 min at 37°C. Cells were washed again twice with 1X PBS buffer and resuspended in with 1X PBS and 0.1% Triton–X and lysed by beat beating at 4°C. Next, lysed cells (20 μL) were mixed with 2.16 μL of freshly prepared click mix (0.5 μL of 50 mM CuSO4 in H2O, 1.16 μL of 100 mM BTTAA in DMSO, and 0.5 μL of N3-Cy5 in DMSO) and 1.16 μL of 300 mM sodium ascorbate solution in H2O and incubated at 37 °C for 30 min. Next step, 20 μL of 4X SDS loading buffer was added in each sample and boiled at 100 °C for 10 min. The processed samples were allowed to cool and analyzed by SDS-PAGE (12%) running at 120 V in an electrophoresis chamber. Cy5 fluorescence was imaged using the Cy5 channel on a Typhoon 9410 Imager (Amersham Biosciences).

[4] = system: Fph enzymes in live S. aureus cells (USA300); experiment: as above; format: cell-based, Staphylococcus aureus; details: 100 μM compound, live S. aureus cells
Method: as §1

[5] = system: S. aureus wild type and fph transposon mutants; experiment: Bacterial growth inhibition assay, S. aureus; format: cell-based, Staphylococcus aureus; details: 1–100 μM
Method: Bacteria were streaked from glycerol stocks onto agar plates and grown overnight at 37°C. A single colony was inoculated in either Tryptic Soy Broth (TSB; Sigma-Aldrich, St. Louis, MO; used for most species) or Bacto Brain Heart Infusion (BHI; Becton, Dickinson, and Company, Franklin Lakes, NJ; used for L. monocytogenes and S. pyogenes) and grown at 37°C shaking until mid-exponential phase (OD600 = 0.5), then diluted 1:10 in cation-adjusted Mueller Hinton Broth (MHB2, Millipore Sigma, Bedford, MA; used for most species) or BHI (for L. monocytogenes and S. pyogenes). 15 μl of this dilution was added to 135 μl of MHB2 or BHI in a flat-bottom clear 96-well plate for a starting inoculum of ~ 5 × 10^5 CFU/ml.
For bacterial growth inhibition assay, wild-type S. aureus and transposon mutants (fphB::Tn, fphE::Tn and fphH::Tn) were grown with compounds at final concentrations ranging from 1–100 μM and compared to growth in media with an equivalent percentage of DMSO. Each condition was plated as technical duplicates. The plate was incubated at 37°C with shaking every 15 minutes followed by measurement of OD600 for 14 hr. All growth curves were repeated at least twice and analyzed in GraphPad Prism 10.0 software. For bacterial resistance analysis, overnight culture of S. aureus Newman was diluted to an OD600 of 0.01 in MHB. This was followed by pretreatment with 20 μM N34 or equivalent DMSO volume as control. The pretreatment was allowed to proceed for 3 hr before initiating treatment with different concentrations of the test antibiotics (Table S5). The cultures were incubated overnight at 37°C, 5% CO2 before their optical density was read. The EC50 of the antibiotics against the bacteria in the presence or absence of N34 were determined by fitting the normalized data into a four-parameter logistic model in GraphPad Prism 10.0 software.

[6] = system: Escherichia coli; experiment: Bacterial growth inhibition assay, E. coli; format: cell-based

OB(O)c1csc2ccccc12 [Z27, Benzo[b]thiophen-3-ylboronic acid]
IC50 [1]: 50 nM
CC50 at 48 h [2]: > 200 µM
concentration completely inhibiting FphE labeling [3]: ≥ 50 µM
competition of FP labeling in live cells (in words) [4]: only blocked FP labeling of FphE in live cells
effect on S. aureus growth (in words) [5]: reduced growth for only the fphE mutant
growth defect (in words) [6]: no significant growth defect
